From patent publication US12150933B2, “IL-8 inihibitors for use in the treatment of some urological disorders” (DOMPÉ FARMACEUTICI S.P.A., priority 2015, dated 2024)
Where a name gives a salt, the structure may show the parent alone.

Experiments:
[1] = test system: CXCR1/CXCR2; settings: cited from earlier work
[2] = test system: CYP-induced visceral pain; experiment: Acute administration in CYP-induced visceral pain in rats (Von Frey mechanical threshold); assay type: in vivo, rat; settings: 2 hours after administration, versus pre-treatment
Description: Female Sprague Dawley rats (Crl:CD(SD)BR, 250-350 g) from Charles River Italy were used in these experiments. Animals were housed with free access to food and water and maintained on a forced 12 hours light-dark cycle at 22-24° C. for at least one week before the experiments were carried out. The animals were handled according to internationally accepted principles for care of laboratory animals (E.E.C. Council Directive 86/609, […]. 18, 1986). Cyclophosphamide, 75 mg/kg i.p. for 3 times, every 3rd day, was dissolved in distilled water and administered to animals by i.p. route (volume 5 mL/kg). Appropriate weight of Compd. 1 or Compd. 2 was dissolved in saline, all doses of test compounds were administered by oral gavage (volume 2 mL/kg). On the day of the experiment, each rat was placed individually in a clear plastic testing box with a grid floor and allowed to acclimatize for at least 10 min. Visceral sensitivity in response to mechanical stimuli was determined using Von Frey monofilaments (1-2-4-8-15-26-60-100 g) applied in the lower abdominal area (close to the urinary bladder) and on both hind paws plantar surface (to evaluate referred pain). Each Von Frey monofilament was applied 5 times at the level of abdomen and 3 times at the level of each paw, in an ascending order of strength at interval of 5 sec. A stimulus-induced response was considered positive when the paw was sharply withdrawn, paw licking occurred, or the animal flinched upon removal of the filament. Behavioral testing on animals was performed at 3 different times: • before CYP administration (in order to acquire basal values) • after CYP administration, before treatment with the test compound, to verify the pathology (in order to acquire pre-treatment values) • after CYP administration, after treatment (in order to acquire post-treatment values) […] The test was performed in blind. Compd. 1 and Compd. […]

[3] = test system: CYP-induced cystitis; experiment: Cystometrographic recordings in conscious rats with CYP-induced cystitis; assay type: in vivo, rat; settings: 24 hours after CYP 175 mg/kg i.p.
Description: Female Sprague Dawley rats (Crl:CD(SD)BR, 250-350 g bw) from Charles River Italy were used in these experiments. Animals were housed with free access to food and water and maintained on a forced 12 hours light-dark cycle at 22-24° C. for at least one week before the experiments were carried out.
Rats, anaesthetized with equithensin solution (2 ml/kg i.p.), were placed in a supine position and an approximately 10 mm midline incision was made in the shaved and cleaned abdominal wall. The urinary bladder was gently freed from adhering tissues, emptied and then cannulated, via an incision at the dome, with a polyethylene cannula (Portex, ID 0.58 mm, OD 0.96 mm), which was permanently sutured with silk thread. The cannula was exteriorized through a subcutaneous tunnel in the retroscapular area, where it was connected with a plastic adapter, in order to avoid the risk of removal by the animal.
For drugs testing, rats were utilized one day after catheter implantation at about 24 hours after administrations CYP.
On the day of the experiment, the rats (fasted overnight) were placed in Bollman's cages; after a stabilization period of 20 min, the free tip of the cannula was connected by a T-shape tube to a pressure transducer and to a peristaltic pump for a continuous infusion of saline solution (room temperature) into the urinary bladder, at the constant rate of 0.05 ml/min. This procedure, termed cystometry, allows the detection of continuous cycles of filling and voiding of the bladder named cystometrograms.
From the cystometrograms acquired by the Biopac System and recorded on a PC the Bladder Volume Capacity (BVC) parameter was calculated as volume capacity, defined as volume (in ml) infused into the bladder and necessary to induce detrusor contraction followed micturition.
Basal BVC was evaluated as mean values from the cystometrograms recorded in 30-60 minutes of time prior the treatment (“BASAL”). Then the bladder infusion was stopped, the animals were treated orally with the test compound or vehicle and, after restarting continuous bladder filling with saline for 4 or 5 hours, BVC values after administration were collected.
BVC parameters were recorded from the cystometrogram over a 4/5 hours period post-dose.

[4] = test system: CYP-induced cystitis; experiment: Microscopic examination of urinary bladders after chronic preventive administration; assay type: in vivo, rat; settings: preventive Mesna treatment
Source text: At the end of the study, the urinary bladders were opened, placed in 10% buffered formalin and stored at room temperature until completion of hystomorphological analysis (see Example 6 below).
At the end of the efficacy study of chronic preventive administration, the urinary bladders were opened, placed in 10% buffered formalin and stored at room temperature until hystomorphological analysis.
Treatment with Compd. […] 1.

[5] = test system: CYP-induced visceral pain; experiment: Chronic preventive treatment in CYP-induced visceral pain model in rats; comparison with Mesna; assay type: in vivo, rat; settings: 12.5 mg/kg i.p. several times a day for 3 days
Description: The effect of chronic preventive administration of Compd. 1 in a visceral pain model induced by repeated administration of cyclophosphamide (CYP) in conscious rats was evaluated.
The oral dose of 7 mg/kg of Compd. 1 was chosen on the basis of previous evaluations. Compd. 1 or vehicle was orally administered to animals twice daily (according to the PK profile of the molecule) for 7 days. Mesna_or vehicle was intraperitoneally administered several times a day for 3 days (when CYP was administered).
Repeated treatment with CYP (75 mg/kg i.p. for 3 times, every 3rd day), induced a strong decrease in withdrawal thresholds to noxious stimulus measured at the level of low abdomen and hind-paws. Nociceptive hypersensitivity was evaluated. In the control group, nociceptive thresholds of abdomen and hind-paws were not altered after the treatment with vehicle.
Behavioral testing was performed at 4 different times: • before CYP administration (in order to acquire basal values) • after CYP administration and before treatment with the tested compound, to verify the pathology (in order to acquire pre-treatment values) • after treatment, 42 or 48 hours from the last administration of Compd. 1 or Mesna.

[6] = test system: CYP-induced visceral pain; experiment: Chronic administration in CYP-induced visceral pain in rats (Von Frey withdrawal threshold); assay type: in vivo, rat; settings: 40-80 mg/kg p.o., systemic
Description: Cyclophosphamide, 75 mg/kg i.p. for 3 times, every 3rd day, was dissolved in distilled water and administered to animals by i.p. route (volume 5 mL/kg). Appropriate weight of Compd. 1 or Compd. 2 was dissolved in saline, all doses of test compounds were administered by oral gavage (volume 2 mL/kg).
On the day of the experiment, each rat was placed individually in a clear plastic testing box with a grid floor and allowed to acclimatize for at least 10 min. Visceral sensitivity in response to mechanical stimuli was determined using Von Frey monofilaments (1-2-4-8-15-26-60-100 g) applied in the lower abdominal area (close to the urinary bladder) and on both hind paws plantar surface (to evaluate referred pain).
Each Von Frey monofilament was applied 5 times at the level of abdomen and 3 times at the level of each paw, in an ascending order of strength at interval of 5 sec. A stimulus-induced response was considered positive when the paw was sharply withdrawn, paw licking occurred, or the animal flinched upon removal of the filament.
• before CYP administration (in order to acquire basal values) • after CYP administration and before treatment, to verify the pathology (in order to acquire pre-treatment values) • after chronic treatment, about 18 hours after last administration of Compd. 1 (in order to acquire post-treatment values). • after chronic treatment, 2 hours after the last administration of Compd. 1 (in order to acquire post-treatment values after chronic+acute administration)
Compd. 1 or vehicle was administered p.o. to animals twice daily (according to the pharmacokinetic profile of the compound) for 6 days, starting from 24 hours after last treatment with CYP, when painful symptoms were well established. Nociceptive hypersensitivity was evaluated about 18 hours after the last administration of Compd. 1 (or vehicle) in order to evaluate the effect of chronic administration, or a further dosage of compound was administered and evaluation carried out 2 hours thereafter, in order to compare with acute protocol, described in Example 1.

Compound: C[C@@H](C(=O)NS(C)(=O)=O)c1ccc(OS(=O)(=O)C(F)(F)F)cc1 [Compd. 2, R(−)-2-[(4′-trifluoromethanesulfonyloxy)phenyl]-N-methanesulfonyl propionamide]
- CXCR1/CXCR2 inhibition [1]: potent and selective dual CXCR1/CXCR2 non-competitive allosteric inhibitor
- mechanical threshold, abdomen and hind paws ([2]; 10 mg/kg p.o.): statistically significant increase in mechanical threshold only in the abdomen
- mechanical threshold, abdomen and hind paws ([2]; 30 mg/kg p.o.): statistically significant increase in mechanical threshold in both the abdomen and paws area
- bladder volume capacity (BVC) ([3]; 20 mg/kg oral): showed efficacy on BVC
- bladder volume capacity (BVC) ([3]; 30 mg/kg oral): showed efficacy on BVC

Compound: O=S(=O)(O)CCS [Mesna, 2-mercaptoethene sulfate, reference compound]
- protective effect on the CYP-induced cystitis [4]: did not exert any protective effect
- CYP-induced nociceptive behavior [5]: did not produce a reduction of CYP-induced nociceptive behavior

Compound: NCC1(CC(=O)O)CCCCC1 [gabapentin, reference compound]
- antinociceptive effect [6]: partial maximum antinociceptive effect
